We go through 19 molecules from ChEMBL document CHEMBL5634070, “Assessment of the structure-activity relationship and antileukemic activity of diacylpyramide compounds as human ClpP agonists” (Eur J Med Chem, 2023).

Assay [1] concerns the target ATP-dependent Clp protease proteolytic subunit, mitochondrial (Homo sapiens, UniProt Q16740). Nature of the assay: Agonist activity at human CLpP by measuring alpha-casein hydrolysis using alpha-casein as substrate preincubated for 10 mins followed by substrate addition and measured after 120 mins by Coomassie brilliant blue staining based SDS-PAGE assay.
The test system of assay [2] is MOLM-13. Nature of the assay: Antiproliferative activity against human MOLM-13 cells assessed as inhibition of cell growth at 20 uM by CCK-8 assay relative to control. The class given is functional. A general note: Formazan colour is commonly taken as a measure of viable cells.

Chain of ATP-dependent Clp protease proteolytic subunit, mitochondrial (Q16740 whole entry): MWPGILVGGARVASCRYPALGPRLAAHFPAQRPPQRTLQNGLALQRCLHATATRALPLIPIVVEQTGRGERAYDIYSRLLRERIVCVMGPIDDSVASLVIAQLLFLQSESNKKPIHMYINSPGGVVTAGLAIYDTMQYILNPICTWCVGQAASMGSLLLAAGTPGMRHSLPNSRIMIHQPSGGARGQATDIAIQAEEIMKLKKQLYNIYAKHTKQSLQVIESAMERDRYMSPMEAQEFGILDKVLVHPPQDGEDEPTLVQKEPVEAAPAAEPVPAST

Broadly, the inhibition is the percentage by which the read-out fell short of the control. `CC[C@H](C)[C@H]1C(=O)N(Cc2cccc3ccccc23)C[C@@H]2N(C(=O)NCc3ccc(C(C)C)cc3)CCC(=O)N12` returned an EC50 in assay [1] above 25 µM. For the same molecule, in assay [2], the inhibition at 20 µM was 97.7%.

For `CC[C@H](C)[C@H]1C(=O)N(Cc2cccc3ccccc23)C[C@@H]2N(C(=O)NCc3ccc4c(c3)OCO4)CCC(=O)N12`, the EC50 in assay [1] worked out at 5.8 µM. Moreover, the inhibition at 20 µM in assay [2] was 78.6%.

In turn, `CSCC[C@H]1C(=O)N(Cc2cccc3ccccc23)C[C@@H]2N(C(=O)NCc3ccccc3)CCC(=O)N21` displayed an EC50 in assay [1] of 15.9 µM. In addition, the inhibition at 20 µM in assay [2] turned out to be 24.4%.

In assay [1], `CC(C)C[C@H]1C(=O)N(Cc2cccc3ccccc23)C[C@@H]2N(C(=O)NCc3ccccc3)CCC(=O)N21` yielded an EC50 of 7.2 µM. Further, in assay [2], the inhibition at 20 µM was 82.5%.

Molecule `CC[C@H](C)[C@H]1C(=O)N(Cc2cccc3ccccc23)C[C@@H]2N(C(=O)NCc3ccc(F)c(OC)c3)CCC(=O)N12` showed an EC50 in assay [1] of 5.4 µM. The inhibition at 20 µM in assay [2] is 98.1%.

As for `CC[C@H](C)[C@H]1C(=O)N(Cc2cccc3ccccc23)C[C@@H]2N(C(=O)NCc3ccc(OC)c(OC)c3)CCC(=O)N12`, the EC50 in assay [1] is above 25 µM. Also, in assay [2], the inhibition at 20 µM turned out to be 35.2%.

On to `CC[C@H](C)[C@H]1C(=O)N(Cc2cccc3ccccc23)C[C@@H]2N(C(=O)NCc3ccccc3)CCC(=O)N12`, for which, in assay [1], the EC50 was found to be 7.8 µM. Also, in assay [2], the inhibition at 20 µM came to 97.9%.

`CC[C@H](C)[C@H]1C(=O)N(Cc2cccc3ccccc23)C[C@@H]2N(C(=O)NC(C)(C)c3ccccc3)CCC(=O)N12` had an EC50 in assay [1] of 4.3 µM. Besides, the inhibition at 20 µM in assay [2] stood at 46.3%.

`CC[C@H](C)[C@H]1C(=O)N(Cc2cccc3ccccc23)C[C@@H]2N(C(=O)NCc3ccc4ccccc4c3)CCC(=O)N12` displayed an EC50 in assay [1] of 10.6 µM. Further, the inhibition at 20 µM in assay [2] stood at 99.3%.

Turning to `CC[C@H](C)[C@H]1C(=O)N(Cc2cccc3ccccc23)C[C@@H]2N(C(=O)NCc3ccc(F)c(Br)c3)CCC(=O)N12`, the EC50 in assay [1] stood at 3.6 µM. The inhibition at 20 µM in assay [2] was 97.6%.

`CC[C@H](C)[C@H]1C(=O)N(Cc2ccc3ccccc3c2)C[C@@H]2N(C(=O)NCc3ccc(Br)cc3)CCC(=O)N12` showed an EC50 in assay [1] above 25 µM. In addition, in assay [2], the inhibition at 20 µM was 13.2%.

`CC[C@H](C)[C@H]1C(=O)N(Cc2cccc3ccccc23)C[C@@H]2N(C(=O)NCc3c(F)c(F)c(F)c(F)c3F)CCC(=O)N12` came in with an EC50 in assay [1] of 15.9 µM. Besides, the inhibition at 20 µM in assay [2] came to 99.9%.

`O=C1[C@H](Cc2ccc(O)cc2)N2C(=O)CCN(C(=O)NCc3ccccc3)[C@H]2CN1Cc1cccc2ccccc12` displayed an EC50 in assay [1] of 7.1 µM. For the same molecule, in assay [2], the inhibition at 20 µM was determined as 86.9%.

For `CC[C@H](C)[C@H]1C(=O)N(Cc2cccc3ccccc23)C[C@@H]2N(C(=O)NCc3ccc(I)cc3)CCC(=O)N12`, the EC50 in assay [1] was 5.2 µM. Besides, the inhibition at 20 µM in assay [2] amounted to 97.5%.

As for `CC[C@H](C)[C@H]1C(=O)N(Cc2cccc3ccccc23)C[C@@H]2N(C(=O)NCC3CCOCC3)CCC(=O)N12`, the EC50 in assay [1] was above 25 µM. Also, the inhibition at 20 µM in assay [2] amounted to 6.3%.

In assay [1], `CC[C@H](C)[C@H]1C(=O)N(Cc2cccc3ccccc23)C[C@@H]2N(C(=O)CCc3ccccc3)CCC(=O)N12` yielded an EC50 of 14.1 µM. Also, the inhibition at 20 µM in assay [2] was found to be 92%.

As to `CC[C@H](C)[C@H]1C(=O)N(Cc2cccc3ccccc23)C[C@@H]2N(C(=O)NCc3ccc(F)c(Cl)c3)CCC(=O)N12`, in assay [1], the EC50 stood at 3.4 µM. In addition, in assay [2], the inhibition at 20 µM turned out to be 97.9%.

`CC[C@H](C)[C@H]1C(=O)N(Cc2cccc3ccccc23)C[C@@H]2N(C(=O)NCc3ccc(C(F)(F)F)cc3)CCC(=O)N12` gave an EC50 in assay [1] of 7.7 µM. Besides, the inhibition at 20 µM in assay [2] was 95.3%.

In turn, `CC[C@H](C)[C@H]1C(=O)N(Cc2cccc3ccccc23)C[C@@H]2N(C(=O)NCc3cc(F)c(F)c(F)c3)CCC(=O)N12` showed an EC50 in assay [1] of 10.9 µM. Also, the inhibition at 20 µM in assay [2] amounted to 99.5%.
